The source made the active and inactive calls. The calls are words filed in the database; no cut-off is given here.
What was measured:
[1] = test system: Human alphaherpesvirus 1; experiment: Antiviral activity against HSV-1 infected in African green monkey Vero cells at 10 to 100 uM by plaque reduction assay; assay type: functional, organism-based
[2] = test system: Vero; experiment: Cytotoxicity against African green monkey Vero cells at 1 to 100 uM compound in DMSO by trypan blue exclusion assay; assay type: cell-based; conditions: chlorocebus sabaeus
[3] = test system: Vero; experiment: Cytotoxicity against African green monkey Vero cells at 40 to 100 uM compound in water by trypan blue exclusion assay; assay type: cell-based; conditions: chlorocebus sabaeus
[4] = test system: Human alphaherpesvirus 1; experiment: Antiviral activity against HSV-1 infected in African green monkey Vero cells assessed as reduction in plaque formation at 10 to 100 uM by inverted microscopy; assay type: functional, organism-based

Structure (SMILES) | inhibition [1] | Activity [2] | Activity [3] | Activity [4]
CC1CC(=O)C2C(=O)C(C)N=C2C1 (stereo not given) | Dose-dependent effect | Non-toxic | Non-toxic | Active
CC1N=C2CCCC(=O)C2C1=O (stereo not given) | Dose-dependent effect | Non-toxic | Non-toxic | –
CC1N=C2CC(C)(C)CC(=O)C2C1=O (stereo not given) | Dose-dependent effect | Non-toxic | Non-toxic | –
